Here are results for 3 compounds from patent publication US20230227466A1, “SUBSTITUTED THIENOPYRIMIDINES THAT INTERACT WITH THE RAS SUPERFAMILY FOR THE TREATMENT OF CANCERS, INFLAMMATORY DISEASES, RASOPATHIES, AND FIBROTIC DISEASE” (SHY Therapeutics, LLC, priority 2020, published 2023).

Holding throughout (test): Cell proliferation assay (CellTiter 96 Aqueous One)
Holding throughout (assay type): cell-based

Experiment [1] has as its system A-549 NSCLC cell line (KRAS G12S). The note with it: Homo sapiens; A549, 2-4 days, 10% FBS. The procedure, abridged:
(§1)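 Percent inhibition of proliferation is derived from MTS absorbance data. Cells seeded at 2000–5000 per well were grown overnight before treatment. Compounds, at 10 μM final or in dilution series, stayed on cells for 2–4 days in medium containing 10% FBS and 0.3% DMSO.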

For experiment [2], the system named is PANC-1 pancreatic cancer cell line (KRAS G12D). The note with it: Homo sapiens; PANC-1, 2-4 days, 10% FBS. In short, it runs like this:
as §1

The test system of experiment [3] is SW-620 colorectal cancer cell line (KRAS G12V). The note with it: Homo sapiens; SW-620, 2-4 days, 10% FBS. In short, it runs like this: as §1

In the case of `COCC1CCN(c2nc(-c3nccn3C)nc3sc(-c4ccn(C(C)C)n4)c(C)c23)C1` (racemic) [Compound 38, rac-6-(1-Isopropyl-1H-pyrazol-3-yl)-4-(3-(methoxymethyl)pyrrolidin-1-yl)-5-methyl-2-(1-methyl-1H-imidazol-2-yl)thieno[2,3-d]pyrimidine], the IC50 in experiment [1], in experiment [2] and in experiment [3] was 0.75 to 1 µM throughout.

Consider `COC[C@@H]1CC[C@@H]1CNc1nc(-c2nccn2C)nc2sc(-c3ccn(C(C)C)n3)c(C)c12` (racemic) [Compound 63, rac-6-(1-Isopropyl-1H-pyrazol-3-y)-N-(((1S,2R)-2-(methoxymethyl)cyclobutyl)methyl)-5-methyl-2-(1-methyl-1H-imidazol-2-yl)thieno[2,3-d]pyrimidin-4-amine], for which the IC50 in experiment [1] was 0.4 to 0.75 µM; in experiment [2] it was 0.4 to 0.75 µM; in experiment [3], under 0.4 µM.

As to `CO[C@@H]1CC[C@H](Nc2nc(-c3nccn3C)nc3sc(-c4ccn(C(C)C)n4)c(-c4ccccc4)c23)C1` [Example 4, 6-(1-isopropyl-1H-pyrazol-3-yl)-N-((1S,3R)-3-methoxycyclopentyl)-2-(1-methyl-1H-imidazol-2-yl)-5-phenylthieno[2,3-d]pyrimidin-4-amine], the IC50 in experiment [1] is 0.4 to 0.75 µM; in experiment [2], under 0.4 µM; in experiment [3] it was 0.4 to 0.75 µM.
